# According to ChEMBL document CHEMBL1150977, “A quantitative analysis of kinase inhibitor selectivity” (Nat Biotechnol, 2008):
# What was measured:
# [1] = molecular target: T1, Receptor-type tyrosine-protein kinase FLT3 (Homo sapiens, UniProt P36888)
# T1 sequence (P36888 whole entry): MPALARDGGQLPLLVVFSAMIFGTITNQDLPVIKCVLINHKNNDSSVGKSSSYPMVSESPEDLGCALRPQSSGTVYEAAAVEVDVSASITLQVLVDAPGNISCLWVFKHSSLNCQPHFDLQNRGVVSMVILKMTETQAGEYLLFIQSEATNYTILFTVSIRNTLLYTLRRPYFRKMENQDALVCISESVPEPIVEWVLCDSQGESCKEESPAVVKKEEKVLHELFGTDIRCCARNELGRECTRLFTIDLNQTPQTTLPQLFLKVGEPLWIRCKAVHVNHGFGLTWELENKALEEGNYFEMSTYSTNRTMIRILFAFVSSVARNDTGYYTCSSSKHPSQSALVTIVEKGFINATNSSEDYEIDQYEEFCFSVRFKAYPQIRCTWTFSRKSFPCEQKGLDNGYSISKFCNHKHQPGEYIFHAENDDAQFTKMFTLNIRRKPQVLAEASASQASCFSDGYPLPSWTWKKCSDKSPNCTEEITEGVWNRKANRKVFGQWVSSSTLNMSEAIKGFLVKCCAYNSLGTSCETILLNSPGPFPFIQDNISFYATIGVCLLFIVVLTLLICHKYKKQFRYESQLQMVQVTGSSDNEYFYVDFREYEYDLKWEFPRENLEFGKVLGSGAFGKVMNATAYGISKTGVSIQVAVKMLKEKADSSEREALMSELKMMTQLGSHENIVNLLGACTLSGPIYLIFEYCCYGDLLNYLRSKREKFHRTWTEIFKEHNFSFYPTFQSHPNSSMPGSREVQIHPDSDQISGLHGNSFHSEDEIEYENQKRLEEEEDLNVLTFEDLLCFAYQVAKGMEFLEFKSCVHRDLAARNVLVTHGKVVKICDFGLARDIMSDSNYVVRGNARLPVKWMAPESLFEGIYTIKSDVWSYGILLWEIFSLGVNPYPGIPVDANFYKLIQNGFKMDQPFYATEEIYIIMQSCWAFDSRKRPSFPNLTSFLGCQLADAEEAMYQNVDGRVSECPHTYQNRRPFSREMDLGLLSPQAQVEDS
# [2] = molecular target: Serine/threonine-protein kinase 16 (Homo sapiens, UniProt O75716)
# Chain of Serine/threonine-protein kinase 16 (O75716 whole entry): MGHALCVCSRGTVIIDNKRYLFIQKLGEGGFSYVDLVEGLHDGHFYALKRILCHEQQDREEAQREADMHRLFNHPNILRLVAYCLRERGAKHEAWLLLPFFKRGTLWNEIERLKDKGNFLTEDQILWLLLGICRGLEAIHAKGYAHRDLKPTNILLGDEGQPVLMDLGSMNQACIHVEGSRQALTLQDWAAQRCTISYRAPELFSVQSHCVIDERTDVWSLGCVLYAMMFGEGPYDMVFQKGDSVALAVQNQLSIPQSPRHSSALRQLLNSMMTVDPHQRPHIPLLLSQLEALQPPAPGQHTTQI
# [3] = molecular target: Tyrosine-protein kinase ABL1 (Homo sapiens, UniProt P00519, Q252H)
# [4] = molecular target: T2, Serine/threonine-protein kinase 3 (Homo sapiens, UniProt Q13188)
# T2 sequence (Q13188 whole entry): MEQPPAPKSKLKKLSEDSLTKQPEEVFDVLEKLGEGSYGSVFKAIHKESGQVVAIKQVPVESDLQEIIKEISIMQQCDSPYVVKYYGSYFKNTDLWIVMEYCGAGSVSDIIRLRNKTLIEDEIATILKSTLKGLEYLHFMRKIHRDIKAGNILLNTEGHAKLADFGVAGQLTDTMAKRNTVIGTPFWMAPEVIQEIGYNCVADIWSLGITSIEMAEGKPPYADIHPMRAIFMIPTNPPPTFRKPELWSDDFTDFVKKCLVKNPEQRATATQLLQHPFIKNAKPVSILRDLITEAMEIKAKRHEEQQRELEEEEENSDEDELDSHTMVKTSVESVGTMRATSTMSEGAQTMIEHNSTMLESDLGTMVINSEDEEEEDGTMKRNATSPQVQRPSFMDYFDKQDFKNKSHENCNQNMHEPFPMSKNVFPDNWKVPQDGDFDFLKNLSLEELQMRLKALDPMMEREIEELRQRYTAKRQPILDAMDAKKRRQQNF
# [5] = molecular target: Serine/threonine-protein kinase pim-1 (Homo sapiens, UniProt P11309)
# Chain of Serine/threonine-protein kinase pim-1 (P11309 whole entry): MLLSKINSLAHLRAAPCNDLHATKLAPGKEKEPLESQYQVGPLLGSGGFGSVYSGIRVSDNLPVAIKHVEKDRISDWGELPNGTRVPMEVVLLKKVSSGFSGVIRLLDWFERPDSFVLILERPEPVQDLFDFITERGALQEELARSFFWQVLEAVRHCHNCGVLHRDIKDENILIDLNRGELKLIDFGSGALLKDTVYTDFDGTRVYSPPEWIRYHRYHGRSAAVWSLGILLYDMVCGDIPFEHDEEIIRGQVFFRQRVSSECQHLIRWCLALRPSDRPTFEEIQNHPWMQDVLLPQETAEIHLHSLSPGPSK
# [6] = molecular target: Tyrosine-protein kinase Lck (Homo sapiens, UniProt P06239)
# Chain of Tyrosine-protein kinase Lck (P06239 whole entry): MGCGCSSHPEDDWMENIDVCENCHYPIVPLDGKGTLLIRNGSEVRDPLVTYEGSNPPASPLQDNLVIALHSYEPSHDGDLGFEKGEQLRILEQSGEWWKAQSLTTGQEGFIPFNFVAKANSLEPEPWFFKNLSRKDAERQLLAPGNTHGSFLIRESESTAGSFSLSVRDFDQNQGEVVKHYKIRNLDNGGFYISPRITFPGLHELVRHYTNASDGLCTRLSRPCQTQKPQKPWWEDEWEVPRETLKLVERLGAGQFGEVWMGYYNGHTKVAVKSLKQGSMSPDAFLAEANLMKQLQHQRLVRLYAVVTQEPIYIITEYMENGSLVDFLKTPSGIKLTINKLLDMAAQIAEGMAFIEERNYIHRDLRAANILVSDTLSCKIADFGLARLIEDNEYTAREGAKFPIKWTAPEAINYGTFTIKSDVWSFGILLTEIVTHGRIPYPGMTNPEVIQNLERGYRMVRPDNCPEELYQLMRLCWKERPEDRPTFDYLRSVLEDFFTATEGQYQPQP
# [7] = molecular target: Calcium/calmodulin-dependent protein kinase type II subunit alpha (Homo sapiens, UniProt Q9UQM7)
# Chain of Calcium/calmodulin-dependent protein kinase type II subunit alpha (Q9UQM7 whole entry): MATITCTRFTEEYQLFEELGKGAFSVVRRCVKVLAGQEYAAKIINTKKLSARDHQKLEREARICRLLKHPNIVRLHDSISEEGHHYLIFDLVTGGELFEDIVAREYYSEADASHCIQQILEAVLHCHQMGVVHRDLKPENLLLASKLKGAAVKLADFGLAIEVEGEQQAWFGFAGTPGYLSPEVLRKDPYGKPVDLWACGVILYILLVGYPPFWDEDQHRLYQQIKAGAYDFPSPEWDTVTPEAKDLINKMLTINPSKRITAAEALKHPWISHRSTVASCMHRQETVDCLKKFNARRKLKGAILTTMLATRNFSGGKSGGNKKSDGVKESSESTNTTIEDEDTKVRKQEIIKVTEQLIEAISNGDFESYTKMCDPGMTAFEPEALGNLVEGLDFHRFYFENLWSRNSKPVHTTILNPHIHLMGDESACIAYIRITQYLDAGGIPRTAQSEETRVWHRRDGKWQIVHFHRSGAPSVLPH
# Ephrin type-A receptor 6 = molecular target: T3, Ephrin type-A receptor 6 (Homo sapiens, UniProt Q9UF33)
# T3 sequence (Q9UF33 whole entry): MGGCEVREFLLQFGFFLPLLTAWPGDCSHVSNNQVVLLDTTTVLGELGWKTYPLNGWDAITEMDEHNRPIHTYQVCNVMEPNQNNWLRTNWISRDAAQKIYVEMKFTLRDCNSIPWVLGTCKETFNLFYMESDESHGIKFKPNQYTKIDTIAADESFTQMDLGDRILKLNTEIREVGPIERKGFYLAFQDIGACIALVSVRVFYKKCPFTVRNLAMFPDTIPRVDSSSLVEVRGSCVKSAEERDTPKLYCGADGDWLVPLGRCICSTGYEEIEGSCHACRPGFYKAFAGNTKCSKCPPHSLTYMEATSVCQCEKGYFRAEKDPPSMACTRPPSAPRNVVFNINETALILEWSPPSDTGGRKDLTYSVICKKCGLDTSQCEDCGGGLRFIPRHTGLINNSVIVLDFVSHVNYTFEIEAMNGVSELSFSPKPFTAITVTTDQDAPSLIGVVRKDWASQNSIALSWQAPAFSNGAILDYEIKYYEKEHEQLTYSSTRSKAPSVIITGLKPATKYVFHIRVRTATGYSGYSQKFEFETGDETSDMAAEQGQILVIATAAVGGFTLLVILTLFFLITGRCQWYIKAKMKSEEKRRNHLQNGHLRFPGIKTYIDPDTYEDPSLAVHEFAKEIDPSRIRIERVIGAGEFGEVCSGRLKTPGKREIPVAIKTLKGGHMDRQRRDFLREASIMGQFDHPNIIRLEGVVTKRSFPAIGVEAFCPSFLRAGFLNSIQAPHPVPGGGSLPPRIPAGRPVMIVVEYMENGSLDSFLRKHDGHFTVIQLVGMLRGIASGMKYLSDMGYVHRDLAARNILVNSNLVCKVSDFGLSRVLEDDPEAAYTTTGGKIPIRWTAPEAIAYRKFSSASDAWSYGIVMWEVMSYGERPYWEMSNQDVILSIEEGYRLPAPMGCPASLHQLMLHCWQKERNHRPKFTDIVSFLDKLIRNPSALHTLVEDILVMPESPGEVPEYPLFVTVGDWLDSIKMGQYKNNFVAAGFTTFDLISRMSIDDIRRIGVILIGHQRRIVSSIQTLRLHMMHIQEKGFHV
# [8] = molecular target: Cyclin-dependent kinase 11B (Homo sapiens, UniProt P21127)
# Chain of Cyclin-dependent kinase 11B (P21127 whole entry): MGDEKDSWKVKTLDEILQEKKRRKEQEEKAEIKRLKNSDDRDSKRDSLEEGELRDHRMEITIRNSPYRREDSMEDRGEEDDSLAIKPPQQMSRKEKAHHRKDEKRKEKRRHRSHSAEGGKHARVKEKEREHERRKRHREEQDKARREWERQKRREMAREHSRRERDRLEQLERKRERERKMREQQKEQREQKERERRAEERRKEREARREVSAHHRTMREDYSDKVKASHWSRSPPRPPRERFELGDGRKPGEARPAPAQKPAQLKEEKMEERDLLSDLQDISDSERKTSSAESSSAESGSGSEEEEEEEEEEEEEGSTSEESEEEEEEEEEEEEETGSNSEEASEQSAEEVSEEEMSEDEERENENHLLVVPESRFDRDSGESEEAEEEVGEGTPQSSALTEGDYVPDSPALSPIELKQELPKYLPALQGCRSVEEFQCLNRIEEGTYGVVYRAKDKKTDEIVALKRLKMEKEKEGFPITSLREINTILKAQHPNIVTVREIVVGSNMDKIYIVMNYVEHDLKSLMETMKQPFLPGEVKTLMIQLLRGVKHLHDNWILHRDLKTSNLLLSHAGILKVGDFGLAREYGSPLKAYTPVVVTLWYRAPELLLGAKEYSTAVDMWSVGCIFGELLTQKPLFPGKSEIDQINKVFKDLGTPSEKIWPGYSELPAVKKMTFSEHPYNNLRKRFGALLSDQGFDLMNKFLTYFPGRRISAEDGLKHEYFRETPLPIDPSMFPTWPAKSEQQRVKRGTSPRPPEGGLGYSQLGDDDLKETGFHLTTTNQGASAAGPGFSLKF
# [9] = molecular target: Vascular endothelial growth factor receptor 3 (Homo sapiens, UniProt P35916)
# Chain of Vascular endothelial growth factor receptor 3 (P35916 whole entry): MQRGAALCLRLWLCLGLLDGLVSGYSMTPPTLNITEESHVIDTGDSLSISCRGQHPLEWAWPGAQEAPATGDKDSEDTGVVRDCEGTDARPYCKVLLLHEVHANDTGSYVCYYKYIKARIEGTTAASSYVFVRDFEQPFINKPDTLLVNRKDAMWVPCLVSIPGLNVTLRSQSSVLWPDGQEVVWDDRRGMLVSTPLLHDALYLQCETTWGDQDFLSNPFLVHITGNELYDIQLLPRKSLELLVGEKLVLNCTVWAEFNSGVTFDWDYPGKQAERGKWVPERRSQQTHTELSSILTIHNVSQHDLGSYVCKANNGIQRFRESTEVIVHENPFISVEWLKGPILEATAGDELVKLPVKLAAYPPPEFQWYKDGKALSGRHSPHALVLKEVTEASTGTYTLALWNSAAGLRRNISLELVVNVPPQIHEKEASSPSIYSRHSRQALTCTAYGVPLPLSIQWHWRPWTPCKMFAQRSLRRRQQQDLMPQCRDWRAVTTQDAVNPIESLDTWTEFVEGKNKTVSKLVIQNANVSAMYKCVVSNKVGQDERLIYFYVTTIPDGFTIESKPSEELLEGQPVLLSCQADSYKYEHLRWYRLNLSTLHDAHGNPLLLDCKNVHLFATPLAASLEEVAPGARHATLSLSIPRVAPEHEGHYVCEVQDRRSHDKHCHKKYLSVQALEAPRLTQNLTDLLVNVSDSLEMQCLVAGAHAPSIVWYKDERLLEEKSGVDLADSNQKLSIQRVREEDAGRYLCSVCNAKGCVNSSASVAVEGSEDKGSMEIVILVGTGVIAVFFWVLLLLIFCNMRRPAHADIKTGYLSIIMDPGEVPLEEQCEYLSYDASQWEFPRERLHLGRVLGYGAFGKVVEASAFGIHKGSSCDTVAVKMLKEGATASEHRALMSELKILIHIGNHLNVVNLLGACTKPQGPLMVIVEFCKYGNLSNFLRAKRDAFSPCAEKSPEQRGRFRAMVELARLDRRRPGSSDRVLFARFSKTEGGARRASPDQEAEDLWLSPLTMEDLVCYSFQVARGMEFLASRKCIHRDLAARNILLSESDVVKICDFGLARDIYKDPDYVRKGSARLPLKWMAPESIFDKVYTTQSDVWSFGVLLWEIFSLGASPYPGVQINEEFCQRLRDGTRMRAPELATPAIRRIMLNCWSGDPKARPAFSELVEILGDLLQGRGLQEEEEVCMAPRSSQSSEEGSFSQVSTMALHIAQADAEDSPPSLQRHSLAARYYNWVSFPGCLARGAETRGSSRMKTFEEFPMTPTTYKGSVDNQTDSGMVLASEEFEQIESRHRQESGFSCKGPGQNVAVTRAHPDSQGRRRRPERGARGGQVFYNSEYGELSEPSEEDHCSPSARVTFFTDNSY
smiles,measurement,setting,value
COCC(=O)NC/C=C/c1ccc2ncnc(Nc3ccc(Oc4ccc(C)nc4)c(C)c3)c2c1 [CP-724714],Kd,[1],> 10 µM
same,Kd,[2],> 10 µM
same,Kd,[3],> 10 µM
same,Kd,[4],> 10 µM
same,Kd,[5],> 10 µM
same,Kd,[6],> 10 µM
same,Kd,[7],> 10 µM
same,Kd,Ephrin type-A receptor 6,> 10 µM
same,Kd,[8],> 10 µM
same,Kd,[9],> 10 µM
Nc1nc(Nc2ccc(S(N)(=O)=O)cc2)nn1C(=O)c1c(F)cccc1F [JNJ-7706621],Kd,Ephrin type-A receptor 6,> 10 µM
CCOc1cc2ncc(C#N)c(Nc3ccc(F)c(Cl)c3)c2cc1NC(=O)/C=C/CN(C)C [PELITINIB],Kd,[1],> 10 µM
same,Kd,[2],> 10 µM
same,Kd,[5],> 10 µM
same,Kd,[7],> 10 µM
same,Kd,[8],> 10 µM
same,Kd,[9],> 10 µM
Oc1ccc(-c2nc(-c3ccncc3)c(-c3ccc(F)cc3)[nH]2)cc1 [SB-202190],Kd,[1],> 10 µM
same,Kd,[2],> 10 µM
same,Kd,[3],> 10 µM
same,Kd,[4],> 10 µM
same,Kd,[5],> 10 µM
same,Kd,[6],> 10 µM
same,Kd,[7],> 10 µM
same,Kd,Ephrin type-A receptor 6,2.2 µM
same,Kd,[8],> 10 µM
same,Kd,[9],> 10 µM
NC(=O)c1ccc(-c2nc(-c3ccc4c(c3)OCO4)c(-c3ccccn3)[nH]2)cc1 [SB-431542],Kd,[2],> 10 µM
same,Kd,[3],> 10 µM
same,Kd,[4],> 10 µM
same,Kd,[5],> 10 µM
same,Kd,[6],> 10 µM
same,Kd,[7],> 10 µM
same,Kd,Ephrin type-A receptor 6,> 10 µM
same,Kd,[8],> 10 µM
same,Kd,[9],> 10 µM
